US9561193B2, “Oral and skin care compositions based on a 3,3-Dialkyl-1,1-biphenyl-2,2-diol or a 3,3-Dialkenyl-1,1-biphenyl-2,2-diol” (Colgate-Palmolive Company, priority 2011, dated 2017)
Converted amounts (≈) assume the structure as drawn.

What was measured:
Type in all cases: cell-based
[1] = system: A. viscosus; assay: Minimum Inhibitory Concentration test, oral bacteria; conditions: Actinomyces viscosus, trypticase soy broth, 18-24 hours of incubation
Method: (§1) Table 1 (below) describes the antibacterial efficacy (Minimum Inhibitory Concentration test) of Compound (3) [drawing 5] which is an exemplary compound of the present invention, against common oral bacteria, A. viscosus, S. mutans, S. oralis, S. sanguis, and L. casei. Minimum Inhibitory Concentration values are determined generally according to the following method: A series of two-fold dilutions of compound (3) in trypticase soy broth (Catalog No. 211768; Becton Dickinson, Franklin Lakes N.J.) was prepared in a 96 well plate and a constant amount of bacteria was then added to each well. After 18-24 hours of incubation, bacterial growth was measured with a Spectrophotometric Micro-plate Reader (Powerwave 5×, BioTEK, Winooski Vt.) and the MIC values were determined Results are provided in Table 1: […]

[2] = system: S. sanguis; assay: as above; conditions: trypticase soy broth, 18-24 hours of incubation
Method: as §1

[3] = system: S. oralis; assay: as above; conditions: Streptococcus oralis, trypticase soy broth, 18-24 hours of incubation
Method: as §1

[4] = system: S. mutans; assay: as above; conditions: Streptococcus mutans, trypticase soy broth, 18-24 hours of incubation
Method: as §1

[5] = system: L. casei; assay: as above; conditions: Lacticaseibacillus casei, trypticase soy broth, 18-24 hours of incubation
Method: as §1

[6] = system: Staphylococcus aureus (S. aureus); assay: Minimum Inhibitory Concentration (MIC), skin bacteria; conditions: 18-24 hours of incubation
Method: (§2) Compound (3) was evaluated for its antibacterial efficacy against representative skin bacteria such as Staphylococcus aureus (S. aureus), Corynebacterium minutissimum (C. minutissimum), and Escherichia coli (E. coli). Minimum Inhibitory Concentration (MIC), and a Short Interval Kill Test (SIKT) were performed, and the results are described in Table 6 and Table 7 (below). MIC values against three common skin bacteria were determined for Compound (3) using the following method: A series of two-fold dilutions of Compound (3) was prepared in a 96 well plate and a constant amount of bacteria was added to each well. After 18-24 hours of incubation, bacterial growth was measured with a Spectrophotometric Micro-plate Reader and the MIC values were determined.

[7] = system: Corynebacterium minutissimum (C. minutissimum); assay: as above; conditions: 18-24 hours of incubation
Method: as §2

[8] = system: Escherichia coli (E. coli); assay: as above; conditions: 18-24 hours of incubation
Method: as §2

[9] = system: Prostaglandin E2 (PGE2); assay: PGE2 EIA anti-inflammatory assay in IL-1β or HKPG stimulated cells; conditions: PGE2 level; human embryo palatal mesenchyme cells; IL-1β (10 ng/ml) or heat-killed P. gingivalis (HKPG); overnight incubation
Method: Prostaglandin E2 (PGE2) is a key mediator of periodontal inflammation and its expression is a well-established as a biomarker associated with gingival inflammation. […] The data of Table 9 were obtained generally according to the following method: A 100 μL aliquot of DMEM media (Dulbecco's Modified Eagle Medium) (Invitrogen, Carlsbad, Calif.) containing either IL-1β (10 ng/ml) (Roche Applied Science, Indianapolis Ind.) or 10^8 heat-killed Prophynomonas gingivalis (HKPG) into each well of a sterile 96-well plate (“mirror plate”). An additional 98 μl aliquot of DMEM media containing either IL-1β or HKPG was added to the first well in each row. […]
Each well of a second plate containing growing cells (human embryo palatal mesenchyme cells, catalog no. CRL-1486; ATCC, Manassas, Va.) is washed twice with PBS, after which any remaining media is aspirated from the wells. […] An additional 30 μL aliquot of media is added to each well to adjust the final volume to 100 μL and the level of PGE2 determined using a detection kit generally according to the manufacturer's instructions (PEG2-EIA Kit, catalogue no. 901-001; Assay Designs Inc, Ann Arbor Mich.) and software (GraphPad Prism, GraphPad Software, Inc., San Diego Calif.).

[10] = system: Staphylococcus aureus (S. aureus); assay: Short Interval Kill Test (SIKT); conditions: 1 minute exposure
Method: (§3) Compound (3) was evaluated for its antibacterial efficacy against representative skin bacteria such as Staphylococcus aureus (S. aureus), Corynebacterium minutissimum (C. minutissimum), and Escherichia coli (E. coli). Minimum Inhibitory Concentration (MIC), and a Short Interval Kill Test (SIKT) were performed, and the results are described in Table 6 and Table 7 (below).
(§4) The SIKT test determines the kill effect of a test compound at a predetermined exposure time. The SIKT values presented below in Table 7, were obtained generally according to the following method: An aliquot of Compound (3) in a volume of 1.2 mL is transferred into a sterile test tube, to which 0.2 mL of a freshly prepared bacterial suspension (OD adjusted to 0.1 at 620 nm) is added and gently mixed. The reaction is neutralized at the 1 minute point by adding a neutralizing broth. The resulting mixture is then further diluted (serial ten-fold dilutions) with Letheen broth and an aliquot of each dilution is plated on MCA (Microbial Count Agar) plates for viable bacterial count.

[11] = system: Escherichia coli (E. coli); assay: Short Interval Kill Test (SIKT); conditions: 1 minute exposure
Method: as §3, §4

Compound	MIC [1]	MIC [2]	MIC [3]	MIC [4]	MIC [5]	MIC [6]	MIC [7]	MIC [8]	IC50 [9]	SIKT (% Reduction in viable count in 1 min.) [10]	SIKT (% Reduction in viable count in 1 min.) [11]
CCCc1cccc(-c2cccc(CCC)c2O)c1O [Compound (3), [1,1-Biphenyl]-2,2′-diol,3,3′ dipropyl]	3.9 µg/mL (≈ 14.4 µM)	3.9 µg/mL (≈ 14.4 µM)	7.8 µg/mL (≈ 28.8 µM)	7.8 µg/mL (≈ 28.8 µM)	7.8 µg/mL (≈ 28.8 µM)	31.2 µg/mL (≈ 116 µM)	62.5 µg/mL (≈ 231 µM)	62.5 µg/mL (≈ 231 µM)	0.25 ppm	99.99%	99.55%
C=CCc1ccc(O)c(-c2cc(CC=C)ccc2O)c1 [Magnolol, reference compound]	–	–	–	–	–	–	–	–	0.40 ppm	–	–
